According to patent publication US20260325533A1, “CDK INHIBITOR COMPOUNDS” (ALEKSIA THERAPEUTICS, INC., priority 2023, published 2026):
Read-outs that look alike come from different tables or passages of the source.

Key:
Format in all cases: biochemical
CDK6/CCND1 = CDK6/CCND1 (Homo sapiens, UniProt Q00534); experiment: CDK6 homogeneous time-resolved fluorescence (HTRF) kinase assay; conditions: CDK6/CCND
Outline: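 1 nM enzyme, 1 mM ATP, 50 nM ULight-4E-BP1 (Thr37/46) peptide, 1% DMSO; 20 min compound preincubation, 60 min reaction, 23 °C. EDTA stop, 2 nM Eu-anti-phospho-4E-BP1 antibody 60 min. TR-FRET 665 nm (or 665/615 ratio); IC50 from 11-point half-log titration, top 10 μM.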

CDK4/CCND3 = CDK4/CCND3 (Homo sapiens, UniProt P11802); experiment: CDK4 homogeneous time-resolved fluorescence (HTRF) kinase assay; conditions: CDK4/CCND
Sequence of CDK4/CCND3 (P11802 whole entry): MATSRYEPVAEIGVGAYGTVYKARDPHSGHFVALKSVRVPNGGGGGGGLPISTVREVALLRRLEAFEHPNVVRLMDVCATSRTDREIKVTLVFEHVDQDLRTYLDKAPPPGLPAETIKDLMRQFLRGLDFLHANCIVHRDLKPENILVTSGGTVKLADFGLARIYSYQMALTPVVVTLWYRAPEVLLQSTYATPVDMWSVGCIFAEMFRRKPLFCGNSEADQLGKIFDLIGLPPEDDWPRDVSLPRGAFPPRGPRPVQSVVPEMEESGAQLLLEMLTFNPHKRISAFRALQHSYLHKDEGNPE
Sequence of CDK4/CCND3 (P30281 whole entry partner): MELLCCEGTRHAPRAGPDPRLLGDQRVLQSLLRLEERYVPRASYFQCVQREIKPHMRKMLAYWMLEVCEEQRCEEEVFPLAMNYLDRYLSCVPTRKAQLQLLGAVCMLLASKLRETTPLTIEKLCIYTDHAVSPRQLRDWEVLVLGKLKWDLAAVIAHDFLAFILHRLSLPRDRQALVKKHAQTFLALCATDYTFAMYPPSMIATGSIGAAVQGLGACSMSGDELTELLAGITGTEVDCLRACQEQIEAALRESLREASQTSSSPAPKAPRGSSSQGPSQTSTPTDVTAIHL
Outline: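 Compounds were preincubated with 1.5 nM CDK4/CCND3 for 20 min at 23 °C in HEPES buffer (pH not given), then reacted 60 min with 1 mM ATP and 50 nM ULight-4E-BP1 (Thr37/46) peptide. EDTA stop, Eu-anti-phospho-4E-BP1 detection; 665/615 nm ratio; IC50 from 11-point half-log titrations from 10 μM.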

CDK2/CCNE1 = CDK2/CCNE1 (Homo sapiens, UniProt P24941); experiment: CDK2 homogeneous time-resolved fluorescence (HTRF) kinase assay; conditions: CDK2/CCNE
Outline: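 3 nM CDK2/CCNE1 was preincubated with compound for 20 min at 23 °C in HEPES buffer (pH not stated), then reacted 60 min with 1 mM ATP and 50 nM ULight-4E-BP1 (Thr37/46) peptide. After EDTA stop, Eu-anti-phospho-4E-BP1 antibody (2 nM) was added for 60 min and TR-FRET read at 665 nm.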

CDK1/CCNB1 = CDK1/CCNB1 (Homo sapiens, UniProt P06493); experiment: CDK1 homogeneous time-resolved fluorescence (HTRF) kinase assay; conditions: CDK1/CCNB
Sequence of CDK1/CCNB1 (P06493 whole entry): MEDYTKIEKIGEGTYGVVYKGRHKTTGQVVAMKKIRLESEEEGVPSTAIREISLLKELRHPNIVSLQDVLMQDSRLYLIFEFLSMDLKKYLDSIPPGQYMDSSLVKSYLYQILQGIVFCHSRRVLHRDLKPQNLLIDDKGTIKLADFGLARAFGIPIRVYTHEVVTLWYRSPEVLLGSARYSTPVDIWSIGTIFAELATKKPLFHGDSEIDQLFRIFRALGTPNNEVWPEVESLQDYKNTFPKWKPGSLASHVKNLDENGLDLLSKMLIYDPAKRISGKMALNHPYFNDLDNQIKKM
Sequence of CDK1/CCNB1 (P14635 whole entry partner): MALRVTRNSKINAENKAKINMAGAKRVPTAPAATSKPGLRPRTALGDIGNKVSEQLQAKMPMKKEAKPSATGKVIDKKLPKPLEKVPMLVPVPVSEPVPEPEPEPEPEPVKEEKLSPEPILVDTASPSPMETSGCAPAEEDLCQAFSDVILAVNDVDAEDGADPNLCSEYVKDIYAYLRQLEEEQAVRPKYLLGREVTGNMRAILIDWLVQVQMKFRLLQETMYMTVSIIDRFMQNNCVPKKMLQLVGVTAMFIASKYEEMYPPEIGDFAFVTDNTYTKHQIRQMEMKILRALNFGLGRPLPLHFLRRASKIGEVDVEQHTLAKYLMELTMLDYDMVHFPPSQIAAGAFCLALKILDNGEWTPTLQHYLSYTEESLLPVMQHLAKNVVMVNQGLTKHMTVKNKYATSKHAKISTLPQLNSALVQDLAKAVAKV
Outline: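 0.5 nM CDK1/CCNB1 was preincubated 20 min at 23 °C with compound in HEPES pH-unspecified buffer (MgCl2, EGTA, DTT, Tween 20), then reacted 60 min with 1 mM ATP and 50 nM ULight-4E-BP1 (Thr37/46) peptide. EDTA-stopped reactions were detected with 2 nM Eu-anti-phospho antibody; IC50 from 11-point half-log titrations.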

[1] = >250 nM marked x, read-out: CDK6/CCND IC50 >250 nM
[2] = >250 nM marked x, read-out: CDK4/CCND IC50 >250 nM
[3] = 25-250 nM marked x, read-out: CDK2/CCNE IC50 25-250 nM
[4] = >250 nM marked x, read-out: CDK1/CCNB IC50 >250 nM
[5] = >250 nM, 1 mM ATP, read-out: CDK6/CCND IC50, >250 nM
[6] = >250 nM, read-out: CDK4/CCND IC50, >250 nM
[7] = <25 nM, read-out: CDK2/CCNE IC50, <25 nM
[8] = >250 nM, read-out: CDK1/CCNB IC50 >250 nM
[9] = x = IC50 >250 nM, read-out: CDK6/CCND IC50 (>250 nM column)
[10] = x = IC50 >250 nM, read-out: CDK4/CCND IC50 (>250 nM column)
[11] = 25-250 nM, read-out: CDK2/CCNE IC50, 25-250 nM
[12] = <25 nM, read-out: CDK2/CCNE IC50 <25 nM
[13] = 25-250 nM marked x, read-out: CDK1/CCNB IC50 25-250 nM
[14] = x = IC50 <25 nM, read-out: CDK2/CCNE IC50 (<25 nM)

Sequence of CDK6/CCND1 (Q00534 whole entry): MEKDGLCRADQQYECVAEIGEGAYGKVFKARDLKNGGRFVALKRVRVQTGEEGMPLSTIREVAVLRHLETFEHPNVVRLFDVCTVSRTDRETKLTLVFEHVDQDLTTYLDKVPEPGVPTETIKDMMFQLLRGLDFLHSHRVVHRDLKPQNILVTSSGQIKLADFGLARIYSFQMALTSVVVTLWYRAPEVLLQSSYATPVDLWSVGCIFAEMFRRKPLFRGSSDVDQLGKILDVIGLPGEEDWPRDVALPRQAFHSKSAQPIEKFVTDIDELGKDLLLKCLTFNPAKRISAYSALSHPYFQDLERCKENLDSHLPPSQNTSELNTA
Sequence of CDK6/CCND1 (P24385 whole entry partner): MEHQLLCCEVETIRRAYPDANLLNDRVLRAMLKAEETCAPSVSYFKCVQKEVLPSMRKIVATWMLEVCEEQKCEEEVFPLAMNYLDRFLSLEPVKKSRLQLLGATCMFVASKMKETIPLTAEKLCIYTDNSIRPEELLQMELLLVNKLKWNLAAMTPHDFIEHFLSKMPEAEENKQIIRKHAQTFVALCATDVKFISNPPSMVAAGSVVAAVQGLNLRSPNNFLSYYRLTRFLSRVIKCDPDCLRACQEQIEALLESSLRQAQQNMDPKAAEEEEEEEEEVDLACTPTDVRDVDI

C=CCNC(=O)[C@H]1CC[C@H](c2nccc3cnc(Nc4ccc(S(C)(=O)=O)cc4)cc32)CC1 [Ex 224, (1r,4r)-N-allyl-4-(7-((4-(methylsulfonyl)phenyl)amino)-2,6-naphthyridin-1-yl)cyclohexane-1-carboxamide]
IC50 (CDK6/CCND1; [1]): > 250 nM | IC50 (CDK4/CCND3; [2]): > 250 nM | IC50 (CDK2/CCNE1; [3]): 25 to 250 nM | IC50 (CDK1/CCNB1; [4]): > 250 nM

COc1cccc(NS(=O)(=O)c2ccc(Nc3cc4c(-c5ccc6c(cnn6CC(C)(C)O)c5C)nccc4cn3)cc2)n1 [Ex 812, 4-((5-(1-(2-hydroxy-2-methylpropyl)-4-methyl-1H-indazol-5-yl)-2,6-naphthyridin-3-yl)amino)-N-(6-methoxypyridin-2-yl)benzenesulfonamide]
IC50 (CDK6/CCND1; [5]): > 250 nM | IC50 (CDK4/CCND3; [6]): > 250 nM | IC50 (CDK2/CCNE1; [7]): < 25 nM | IC50 (CDK1/CCNB1; [8]): > 250 nM

CS(=O)(=O)c1ccc(Nc2cc3c(C#Cc4cnc(C#N)c(N)c4)nccc3cn2)cc1 [Ex 536, 3-amino-5-((7-((4-(methylsulfonyl)phenyl)amino)-2,6-naphthyridin-1-yl)ethynyl)picolinonitrile]
IC50 (CDK6/CCND1; [9]): > 250 nM | IC50 (CDK4/CCND3; [10]): > 250 nM | IC50 (CDK2/CCNE1; x = IC50 25-250 nM, read-out: CDK2/CCNE IC50 (25-250 nM)): 25 to 250 nM | IC50 (CDK1/CCNB1; x = IC50 >250 nM, read-out: CDK1/CCNB IC50 (>250 nM column)): > 250 nM

Cc1c(-c2nccc3cnc(Nc4ccc(S(C)(=O)=O)cc4)cc23)ccc2c1cnn2CCC1CNC1 [Ex 216, 5-(1-(2-(azetidin-3-yl)ethyl)-4-methyl-1H-indazol-5-yl)-N-(4-(methylsulfonyl)phenyl)-2,6-naphthyridin-3-amine]
IC50 (CDK6/CCND1; [1]): > 250 nM | IC50 (CDK4/CCND3; [2]): > 250 nM | IC50 (CDK2/CCNE1; [3]): 25 to 250 nM | IC50 (CDK1/CCNB1; [4]): > 250 nM

Cc1c(-c2nccc3cnc(Nc4ccc(S(=O)(=O)Nc5ccncn5)cc4)cc23)ccc2c1cnn2CC(C)(C)O [Ex 797, 4-((5-(1-(2-hydroxy-2-methylpropyl)-4-methyl-1H-indazol-5-yl)-2,6-naphthyridin-3-yl)amino)-N-(pyrimidin-4-yl)benzenesulfonamide]
IC50 (CDK6/CCND1; [5]): > 250 nM | IC50 (CDK4/CCND3; [6]): > 250 nM | IC50 (CDK2/CCNE1; [11]): 25 to 250 nM | IC50 (CDK1/CCNB1; [8]): > 250 nM

CS(=O)(=O)N1CCC(Nc2cc3c(N4CCCC(CO)C4)nccc3cn2)CC1 (racemic) [Ex 40, (1-(7-((1-(methylsulfonyl)piperidin-4-yl)amino)-2,6-naphthyridin-1-yl)piperidin-3-yl)methanol]
IC50 (CDK6/CCND1; 25-250 nM marked x, read-out: CDK6/CCND IC50 25-250 nM): 25 to 250 nM | IC50 (CDK4/CCND3; 25-250 nM marked x, read-out: CDK4/CCND IC50 25-250 nM): 25 to 250 nM | IC50 (CDK2/CCNE1; [12]): < 25 nM | IC50 (CDK1/CCNB1; [13]): 25 to 250 nM

COc1ccc(S(=O)(=O)Nc2ccc(Nc3cc4c(-c5ccc6c(cnn6CC(C)(C)O)c5C)nccc4cn3)cc2)cn1 [Ex 779, N-(4-((5-(1-(2-hydroxy-2-methylpropyl)-4-methyl-1H-indazol-5-yl)-2,6-naphthyridin-3-yl)amino)phenyl)-6-methoxypyridine-3-sulfonamide]
IC50 (CDK6/CCND1; [5]): > 250 nM | IC50 (CDK4/CCND3; [6]): > 250 nM | IC50 (CDK2/CCNE1; [7]): < 25 nM | IC50 (CDK1/CCNB1; [8]): > 250 nM

CC1(C)C(=O)Nc2cc(C#Cc3nccc4cnc(Nc5ccc(S(C)(=O)=O)cc5C(F)F)cc34)ccc21 [Ex 312, 6-((7-((2-(difluoromethyl)-4-(methylsulfonyl)phenyl)amino)-2,6-naphthyridin-1-yl)ethynyl)-3,3-dimethylindolin-2-one]
IC50 (CDK6/CCND1; [1]): > 250 nM | IC50 (CDK4/CCND3; [2]): > 250 nM | IC50 (CDK2/CCNE1; [12]): < 25 nM | IC50 (CDK1/CCNB1; [4]): > 250 nM

CCC1(CC)C(=O)Nc2cc(C#Cc3nccc4cnc(Nc5ccc(S(=N)(=O)CC)cc5OC)cc34)ccc21 (single isomer, unassigned) [Ex 308, 3,3-diethyl-6-((7-((4-(ethylsulfonimidoyl)-2-methoxyphenyl)amino)-2,6-naphthyridin-1-yl)ethynyl)indolin-2-one]
IC50 (CDK6/CCND1; [1]): > 250 nM | IC50 (CDK4/CCND3; [2]): > 250 nM | IC50 (CDK2/CCNE1; [3]): 25 to 250 nM | IC50 (CDK1/CCNB1; [4]): > 250 nM

CC1(C)C(=O)Nc2cc(C#Cc3nccc4cnc(Nc5ccc(S(=O)(=O)C6CC6)cc5)cc34)ccc21 [Ex 444, 6-((7-((4-(cyclopropylsulfonyl)phenyl)amino)-2,6-naphthyridin-1-yl)ethynyl)-3,3-dimethylindolin-2-one]
IC50 (CDK6/CCND1; [9]): > 250 nM | IC50 (CDK4/CCND3; x = IC50 25-250 nM, read-out: CDK4/CCND IC50 (25-250 nM)): 25 to 250 nM | IC50 (CDK2/CCNE1; [14]): < 25 nM | IC50 (CDK1/CCNB1; x = IC50 <25 nM, read-out: CDK1/CCNB IC50 (<25 nM)): < 25 nM

COc1ccc(C#Cc2nccc3cnc(Nc4ccc(S(C)(=O)=O)cc4)cc23)cc1 [Ex 941, 5-((4-methoxyphenyl)ethynyl)-N-(4-(methylsulfonyl)phenyl)-2,6-naphthyridin-3-amine]
IC50 (CDK6/CCND1; [5]): > 250 nM | IC50 (CDK4/CCND3; [6]): > 250 nM | IC50 (CDK2/CCNE1; [11]): 25 to 250 nM | IC50 (CDK1/CCNB1; [8]): > 250 nM

Cc1cc2[nH]ncc2cc1-c1nccc2cnc(NC3CCN(S(C)(=O)=O)CC3)cc12 [Ex 117, 5-(6-methyl-1H-indazol-5-yl)-N-(1-(methylsulfonyl)piperidin-4-yl)-2,6-naphthyridin-3-amine]
IC50 (CDK6/CCND1; <25 nM, read-out: CDK6/CCND IC50 <25 nM): < 25 nM | IC50 (CDK4/CCND3; <25 nM, read-out: CDK4/CCND IC50 <25 nM): < 25 nM | IC50 (CDK2/CCNE1; [12]): < 25 nM | IC50 (CDK1/CCNB1; [13]): 25 to 250 nM

CNS(=N)(=O)c1ccc(Nc2cc3c(-c4ccc5c(cnn5CC(O)(C(F)(F)F)C(F)(F)F)c4C)nccc3cn2)cc1 (single isomer, unassigned) [Ex 683, N-methyl-4-((5-(4-methyl-1-(3,3,3-trifluoro-2-hydroxy-2-(trifluoromethyl)propyl)-1H-indazol-5-yl)-2,6-naphthyridin-3-yl)amino)benzenesulfonimidamide]
IC50 (CDK6/CCND1; 25-250 nM, 1 mM ATP, read-out: CDK6/CCND IC50, 25-250 nM): 25 to 250 nM | IC50 (CDK4/CCND3; 25-250 nM, read-out: CDK4/CCND IC50, 25-250 nM): 25 to 250 nM | IC50 (CDK2/CCNE1; [7]): < 25 nM | IC50 (CDK1/CCNB1; [8]): > 250 nM

COc1ccc(C(=O)N2CCC(Nc3cc4c(-c5ccc6c(cnn6CC(C)(C)O)c5C)nccc4cn3)C2)cc1 (racemic) [Ex 884, (3-((5-(1-(2-hydroxy-2-methylpropyl)-4-methyl-1H-indazol-5-yl)-2,6-naphthyridin-3-yl)amino)pyrrolidin-1-yl)(4-methoxyphenyl)methanone]
IC50 (CDK6/CCND1; [5]): > 250 nM | IC50 (CDK4/CCND3; [6]): > 250 nM | IC50 (CDK2/CCNE1; [7]): < 25 nM | IC50 (CDK1/CCNB1; [8]): > 250 nM

Cc1c(-c2nccc3cnc(Nc4ccc(S(=O)(=O)Nc5nccc(C(F)(F)F)n5)cc4)cc23)ccc2c1cnn2CC(O)(C(F)(F)F)C(F)(F)F [Ex 744, 4-((5-(4-methyl-1-(3,3,3-trifluoro-2-hydroxy-2-(trifluoromethyl)propyl)-1H-indazol-5-yl)-2,6-naphthyridin-3-yl)amino)-N-(4-(trifluoromethyl)pyrimidin-2-yl)benzenesulfonamide]
IC50 (CDK6/CCND1; [5]): > 250 nM | IC50 (CDK4/CCND3; [6]): > 250 nM | IC50 (CDK2/CCNE1; [11]): 25 to 250 nM | IC50 (CDK1/CCNB1; [8]): > 250 nM

CC1(O)C=C(c2nccc3cnc(Nc4ccc(S(C)(=O)=O)cc4)cc23)CCC1 (single isomer, unassigned) [Example 625, 1-methyl-3-(7-((4-(methylsulfonyl)phenyl)amino)-2,6-naphthyridin-1-yl)cyclohex-2-en-1-ol]
IC50 (CDK6/CCND1; x = IC50 25-250 nM, read-out: CDK6/CCND IC50 (25-250 nM)): 25 to 250 nM | IC50 (CDK4/CCND3; [10]): > 250 nM | IC50 (CDK2/CCNE1; [14]): < 25 nM | IC50 (CDK1/CCNB1; x = IC50 25-250 nM, read-out: CDK1/CCNB IC50 (25-250 nM)): 25 to 250 nM

CS(=O)(=O)c1ccc(Nc2cc3c(C#Cc4cncc(F)c4)nccc3cn2)cc1 [Ex 873, 5-((5-fluoropyridin-3-yl)ethynyl)-N-(4-(methylsulfonyl)phenyl)-2,6-naphthyridin-3-amine]
IC50 (CDK6/CCND1; [5]): > 250 nM | IC50 (CDK4/CCND3; [6]): > 250 nM | IC50 (CDK2/CCNE1; [11]): 25 to 250 nM | IC50 (CDK1/CCNB1; [8]): > 250 nM
